From patent US7109229B2, “Methods and compounds for treating proliferative diseases” (Eli Lilly and Company, priority 2000, dated 2006)
Counter-ions that a name gives are not always drawn. Marks after values point to notes of the source that are not given here.

What was measured:
[1] = tested on: Ser-780 pRb phosphorylation in HCT116 cells; assay: Inhibition of Rb phosphorylation assay; format: cell-based, human; conditions: HCT116 cells after 24 h incubation period
From the text: (§1) A major in vitro test is the cell growth inhibition test. In this test, the concentration of the test compound that causes a 50% inhibition of cell growth for a selected cell line. A low value is desirable in this test. This test is done according to a standard protocol (SCHULTZ, R. M., et al, Oncology Res. 5, 223–228 (1993)). Another major in vitro test is the G1 arrest test. This test measures the proportion of the cells that are arrested in the G1 phase relative to control. A result above 1.5 is desirable in this test. […] The results are expressed as a percentage inhibition of ser-780 pRb phosphorylation in drug treated cells versus control cells treated with DMSO alone. […]
Human HCT116 colon carcinoma cell line was purchased from American Tissue Culture Collection (Rockville, Md.) and maintained as monolayer in RPMI-1640 with L-Glutamine and 25 mM HEPES supplemented with 10% fetal bovine serum in a 37° C. incubator with a 10% CO2 atmosphere. […] Protein concentration was determined by the Bio-Rad DC protein assay (Bio-Rad, Hercules, Calif.). […]

HCT116 cells [2] = assay: Cell growth inhibition assay (MTT), HCT116; format: cell-based; conditions: Homo sapiens, HCT-116, 72 h drug exposure
From the text: as §1

Cyclin D1-cdk4 [3] = target: T1, Cyclin D1-cdk4 (Homo sapiens, UniProt P11802); assay: Cyclin D1-cdk4 kinase activity with the ING peptide as substrate; format: biochemical
T1 sequence (P11802 whole entry): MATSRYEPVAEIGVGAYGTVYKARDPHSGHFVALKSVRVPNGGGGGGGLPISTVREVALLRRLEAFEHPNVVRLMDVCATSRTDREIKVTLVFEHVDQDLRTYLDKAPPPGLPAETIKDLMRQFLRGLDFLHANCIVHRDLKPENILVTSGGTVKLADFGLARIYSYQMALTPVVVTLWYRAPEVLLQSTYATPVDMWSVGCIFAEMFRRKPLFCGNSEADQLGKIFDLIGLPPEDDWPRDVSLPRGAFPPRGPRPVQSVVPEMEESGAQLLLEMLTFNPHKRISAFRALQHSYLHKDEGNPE
T1 sequence (P24385 whole entry partner): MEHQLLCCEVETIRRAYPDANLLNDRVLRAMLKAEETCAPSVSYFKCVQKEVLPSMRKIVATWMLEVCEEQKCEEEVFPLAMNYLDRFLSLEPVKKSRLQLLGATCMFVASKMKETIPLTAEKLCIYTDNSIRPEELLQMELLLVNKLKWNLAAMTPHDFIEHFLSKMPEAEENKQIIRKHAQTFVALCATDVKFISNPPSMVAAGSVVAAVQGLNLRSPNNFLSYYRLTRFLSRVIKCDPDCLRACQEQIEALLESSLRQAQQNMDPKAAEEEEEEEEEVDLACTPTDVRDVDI
Method: The compounds of Formula I were tested using in vitro. An important in vitro test is the ability of the compound to inhibit the activity of the CDK4 enzyme. This test is done using Rb^ING and/or Rb^21 substrates as described in the literature (KONSTANTINIDIS, A. K., et al, J. Biol. Chem. 273, 26506–26515 (1998)). The test yields the micromolar concentration of the test compound, which produces a 50% inhibition of the CDK4 enzyme activity.
Assay of Cyclin D1-cdk4 Kinase Activity with the ING Peptide as Substrate.
The cyclin D1-cdk4 kinase activity of a compound was assayed by preparing a 100 ul reaction at the following concentrations: 35 mM Hepes pH 7.0, 10 mM MgCl2, 300 uM ATP, 200 uM ING peptide, 1.0 uCi of γ-^33P-ATP, 4.34 ug of cyclin D-cdk4 enzyme, 4% DMSO, and various concentrations of inhibitor. The reaction was incubated at room temperature (about 74° F.) for 60 minutes, and then terminated by the addition of 100 ul of 10% phosphoric acid. Next, the reaction was filtered through a Millipore Multiscreen-PH Plate—Catalog number MAPH NOB 10, and the plate was washed 2 times with 320 ul each of 0.5% phosphoric acid, followed by the addition of 100 ul of scintillation fluid and quantitation on a Packard Instruments, Top Count, scintillation counter.

H460 cells = assay: Cell growth inhibition assay (MTT), H460; format: cell-based; conditions: Homo sapiens, NCI-H460, 72 h drug exposure
From the text: as §1

Cyclin D1-cdk4 [4] = target: T1, Cyclin D1-cdk4; assay: Cyclin D1-cdk4 kinase activity with the Rb21 protein as substrate; format: biochemical
Method: The compounds of Formula I were tested using in vitro. An important in vitro test is the ability of the compound to inhibit the activity of the CDK4 enzyme. This test is done using Rb^ING and/or Rb^21 substrates as described in the literature ([…]., et al, J. Biol. Chem. 273, 26506-26515 (1998)). […] The reaction was incubated at room temperature (about 74° F.) for 60 minutes, and then terminated by the addition of 100 ul of 25% trichloroacetic acid. Next, the reaction was filtered through a Millipore Multiscreen-FC Plate-Catalog number MAFC NOB 10, and the plate was washed 2 times with 320 ul each of 10% trichloroacetic acid, followed by the addition of 100 ul of scintillation fluid and quantitation on a Packard Instruments, Top Count, scintillation counter.

HCT116 cells [5] = assay: G1 arrest test, cell cycle analysis using flow cytometry; format: cell-based, human; conditions: HCT116 cells after 24 h incubation period; at IC50 conc.
From the text: as §1

protein kinase C = conditions: background, literature; cited from earlier work
protein kinase A = conditions: background, literature; cited from earlier work
[6] = Table 1, ING peptide substrate, read-out: RbING IC50
[7] = Table 1, Rb21 protein substrate, read-out: Rb21 IC50

Compound	IC50 (Cyclin D1-cdk4 [3]; [6])	IC50 (Cyclin D1-cdk4 [4]; [7])	other results
COc1ccc2c(c1)[nH]c1c3ccc4ccn(C)c4c3c3c(c21)C(=O)NC3=O [Example 1, 11-Methoxy-5-methyl-5H,13H-indolo[6,7-a]pyrrolo[3,4-c]carbazole-6,8-dione]	0.0431 µM	0.00165 µM	% Inhibtion of Rb Phosphorylation in vitro @3XIC50 ([1]; compound at 3XIC50): 97%; % Inhibtion of Rb Phosphorylation in vitro @IC50 ([1]; compound at IC50): 90%; IC50 (HCT116 cells [2]): 1.8 µM; IC50 (Cyclin D1-cdk4 [3]; Table 2, Rb^ING substrate, read-out: CDK4 Inhibition (IC50/μM) Rb^ING): 0.04 µM; IC50 (H460 cells): 1.09 µM; IC50 (Cyclin D1-cdk4 [4]; Table 2, Rb^21 substrate, read-out: CDK4 Inhibition (IC50/μM) Rb^21): 0.001 µM; G1 Arrest; x vs control (HCT116 cells [5]): 2.6^c x vs control
Cn1ccc2ccc3c4[nH]c5ccccc5c4c4c(c3c21)C(=O)NC4=O [Example 2, 5-Methyl-7H,13H-indolo[6,7-a]-pyrrolo[3,4-c]-carbazole-6,8-dione]		0.0215 µM	
COc1ccc2c3c4c(c5c(ccc6ccn(C)c65)c3n(CCCO)c2c1)C(=O)NC4=O [Example 11, 13-(3-Hydroxy-propyl)-11-methoxy-5-methyl-5H,13H-indolo[6,7-a]pyrrolo[3,4-c]carbazole-6,8-dione]		0.0116 µM	
COc1ccc2c3c4c(c5c(ccc6ccn(C)c65)c3n(CCN3CCC(C(N)=O)CC3)c2c1)C(=O)NC4=O [Example 36, 11-Methoxy-5-methyl-13-(1-ethyl-piperidine-4-carboxylic acid amide)-7H-indolo[6,7-a]pyrrolo[3,4-c]carbazole-6,8-dione]	0.0824 µM	0.0357 µM	
COc1ccc2c3c4c(c5c(ccc6ccn(C)c65)c3n(CCCNCCN(C)C)c2c1)C(=O)NC4=O [Example 55, 11-Methoxy-5-methyl-13-(N,N-dimethyl-N′-propyl-ethane-1,2-diamine)-7H-indolo[6,7-a]pyrrolo[3,4-c]carbazole-6,8-dione]	0.042 µM	0.0246 µM	
COc1ccc2c3c4c(c5c(ccc6ccn(C)c65)c3n(CCCNCCN(C)C)c2c1)C(=O)NC4=O [Example 56, 11-Methoxy-5-methyl-13-(N,N-dimethyl-N′-propyl-ethane-1,2-diamine)-7H-indolo[6,7-a]pyrrolo[3,4-c]carbazole-6,8-dione dihydrochloride]	0.0992 µM	0.0177 µM	
COC(=O)[C@H](C)NCCCn1c2cc(OC)ccc2c2c3c(c4c(ccc5ccn(C)c54)c21)C(=O)NC3=O [Example 59, (S)-(+)-11-Methoxy-5-methyl-13-(2-propylamino-propionic acid methyl ester)-7H-indolo[6,7-a]pyrrolo[3,4-c]carbazole-6,8-dione]	0.12 µM	0.0451 µM	
CN1CCN(CCc2cccc3c2[nH]c2c4ccc5ccn(C)c5c4c4c(c32)C(=O)NC4=O)CC1 [Example 68, 5-Methyl-12-(1-ethyl-4-methyl-piperazine)-7H,13H-indolo[6,7-a]pyrrolo[3,4-c]carbazole-6,8-dione]	0.0226 µM	0.0109 µM	
CN1CCN(CCCc2cccc3c2[nH]c2c4ccc5ccn(C)c5c4c4c(c32)C(=O)NC4=O)CC1 [Example 79, 12-(1-Methyl-4-propyl-piperazine)-5-methyl-7H,13H-indolo[6,7-a]pyrrolo[3,4-c]carbazole-6,8-dione]	0.0763 µM	0.0347 µM	
Cn1ccc2ccc3c4[nH]c5c(CCN6CCCCC6)cccc5c4c4c(c3c21)C(=O)NC4=O [Example 83, 5-Methyl-12-(2-ethylpiperidine)-7H,13H-indolo[6,7-a]pyrrolo[3,4-c]carbazole-6,8-dione]	0.0782 µM	0.0109 µM	
Cc1ccc2c(c1)[nH]c1c3ccc4ccn(C)c4c3c3c(c21)C(=O)NC3=O [Example 92, 11-Methyl-5-methyl-7H,13H-indolo[6,7-a]pyrrolo[3,4-c]6,8-dione]			melting point: 170 °C (dec.)
Cn1ccc2ccc3c4[nH]c5ccc(C(F)(F)F)cc5c4c4c(c3c21)C(=O)NC4=O [Example 94, 10-Trifluoromethyl-5-methyl-7H,13H-indolo[6,7-a]pyrrolo[3,4-c]6,8-dione]			melting point: 100 to 110 °C (dec.)
CN1CC[C@H](c2c(O)cc(O)c3c(=O)cc(-c4ccccc4Cl)oc23)[C@H](O)C1 [Flavopiridol]			concentration at which protein kinase C is inhibited (protein kinase C): ≥ 10 μM/L; concentration at which protein kinase A is inhibited (protein kinase A): ≥ 10 μM/L
